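Growth conditions: 96-well plates. Treatment: test compound, 48 hours, 5 concentrations. Analysis: linear interpolation between bracketing concentrations; unreached endpoints set to highest concentration. Here, GI50 denotes the concentration required for 50% inhibition of growth. At the TGI there is no net growth.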
What was measured:
Assay in all cases: NCI tumour cell line growth inhibition, 48 h
[1] = system: A498 renal
[2] = system: SF-539 CNS
[3] = system: SNB-19 CNS
[4] = system: U251 CNS
[5] = system: COLO 205 colon
[6] = system: HOP-62 NSCLC
[7] = system: MOLT-4 leukemia
[8] = system: OVCAR-4 ovarian
[9] = system: NCI-H522 lung
[10] = system: BT-549 breast
[11] = system: UACC-257 melanoma
[12] = system: RPMI-8226 leukemia
[13] = system: NCI/ADR-RES ovarian
[14] = system: HCC-2998 colon
[15] = system: A549 NSCLC
[16] = system: MCF7 breast
[17] = system: HT29 colon
[18] = system: DU-145 prostate
[19] = system: 786-0 renal
[20] = system: NCI-H460 lung
[21] = system: SK-MEL-28 melanoma
[22] = system: HS 578T breast
[23] = system: PC-3 prostate
[24] = system: SK-MEL-2 melanoma
[25] = system: M14 melanoma
[26] = system: SW-620 colon
[27] = system: T-47D breast
[28] = system: OVCAR-3 ovarian

CC(C)n1c(=O)n(C)c2cnc3cc(F)c(-c4ccc(OCCCN5CCCCC5)nc4)cc3c21
GI50 [1]: 3.78 µM
TGI [1]: 14 µM
GI50 [2]: 8.38 µM
TGI [2]: 22.9 µM
GI50 [3]: 17.4 µM
TGI [3]: 77.5 µM
GI50 [4]: 13.5 µM
TGI [4]: 37.6 µM
GI50 [5]: 7.39 µM
TGI [5]: 23.4 µM
GI50 [6]: 4.99 µM
TGI [6]: 28.3 µM
GI50 [7]: 5.47 µM
TGI [7]: 41.5 µM
GI50 [8]: 9.08 µM
TGI [8]: 56.5 µM
GI50 [9]: 18.6 µM
TGI [9]: 49.6 µM
GI50 [10]: 10.1 µM
TGI [10]: 28.4 µM
GI50 [11]: 16.4 µM
TGI [11]: 36.8 µM
GI50 [12]: 3.22 µM
TGI [12]: 14.6 µM
GI50 [13]: 12.4 µM
TGI [13]: 81.3 µM
GI50 [14]: 23.3 µM
TGI [14]: > 100 µM
GI50 [15]: 16.3 µM
TGI [15]: 63.9 µM
GI50 [16]: 7.46 µM
TGI [16]: 21.6 µM
GI50 [17]: 8.5 µM
TGI [17]: 37.2 µM
GI50 [18]: 17.7 µM
TGI [18]: > 100 µM
GI50 [19]: 12.9 µM
TGI [19]: 37.9 µM
GI50 [20]: 11.3 µM
TGI [20]: 29.4 µM
GI50 [21]: 13.5 µM
TGI [21]: 32.4 µM
GI50 [22]: 3.33 µM
TGI [22]: 18.1 µM
GI50 [23]: 6.94 µM
TGI [23]: 37.1 µM
GI50 [24]: 14.4 µM
TGI [24]: 30.2 µM
GI50 [25]: 14.6 µM
TGI [25]: 31.6 µM
GI50 [26]: 14.3 µM
TGI [26]: 42.3 µM
GI50 [27]: 9.65 µM
TGI [27]: 38.8 µM
GI50 [28]: 13.7 µM
TGI [28]: 49.5 µM

From PubChem BioAssay (NCI)
